Experimental data: patent US11103493B2, “Substituted pyridinyl compounds as indoleamine 2,3-dioxygenase (IDO) inhibitors” (Merck Sharp & Dohme Corp., priority 2017, dated 2021)

Experiments:
IDO1 [1] = biological target: T1, IDO1 (Homo sapiens, UniProt P14902); assay: IDO1 Cellular Assay in HeLa Cells Stimulated with IFNγ; type: cell-based; conditions: IFNγ 100 ng/mL, 300 uM L-tryptophan, about 48 hours incubation, fluorescence readout, read-out: IDO1 HeLa Cell Assay, IC50
Method: IDO1 Cellular Assay in HeLa Cells Stimulated with IFNγ
HeLa cells were cultured in complete HeLa culture medium (90% EMEM, 10% heat-inactivated fetal bovine serum) and expanded to about 1×10^9 cells. The cells were then collected and frozen down at 1×10^7 cells/vial in 1 mL frozen medium (90% complete HeLa culture medium, 10% DMSO).
Compounds to be tested were serially diluted in ten 3-fold steps in DMSO starting from 10 mM DMSO stocks in Echo low volume plate(s).
Frozen HeLa cells were thawed and transferred into HeLa assay medium (99% complete HeLa culture medium, 1% Pen/Strep) with 20 mL medium/vial of cells. The cells were spun down at 250 g in a table top centrifuge for 5 min and suspended in same volume of HeLa assay medium. The cells were then counted and adjusted to a density of 2×10^5 cells/mL in HeLa assay medium. Sterile L-tryptophan were added to the cells with final concentration of 300 uM L-tryptophan. A small aliquot (2 mL/plate) of HeLa cells were set aside and were not treated with IFNγ, to serve as the Max-E control.
HeLa cells with and without IFNγ were dispensed to the respective wells of 384-well assay plates containing the compounds. The plates were incubated for about 48 hours at a 37° C., 5% CO2 incubator. Afterwards, 12 μL of 0.5 M methyl isonipecotate in dimethyl sulfoxide were added into each well and the plates were sealed and incubated at 37° C. without CO2 overnight. The plates were centrifuged for 1 min at 200×g. The resulting fluorescence was measured in a Spectramax plate reader (Molecular Devices) with a 400 nm excitation filter and a 510 nm emission filter.
Potencies were calculated by […] least squares fit to the four parameter logistic IC50 equation.

IDO1 [2] = biological target: T1, IDO1; assay: IDO1 Human Whole Blood Assay; type: cell-based; conditions: LPS and IFNγ 100 ng/mL, 18 h, kynurenine by LC/MS/MS
Method: IDO1 Human Whole Blood Assay
Compounds to be tested were serially diluted in ten 3-fold steps in DMSO starting from 10 mM. 3 μL of compound dilutions or DMSO alone were then dispensed from the dilution plate into a polypropylene 96-well assay plate containing 97 μL of RPMI medium using an Echo 555 acoustic liquid handler (Labcyte). LPS and IFNγ was prepared in RPMI medium to a 10× of final conc. (1000 ng/mL), final concentration is 100 ng/mL.
Human whole blood was drawn in sodium heparin coated tubes from healthy internal donors. 240 μL of blood was transferred to each of the wells of a v-bottom 96 well plate. 30 μL of compound was transferred from intermediate dilution plate, and incubated for 15 min. 30 μL from stimulants was then transferred to blood and mixed thoroughly. Plate was covered with breathable membrane and incubated at 37° C. for overnight (18 h).
On day 2, isotope labeled standard solutions of kunurenine and tryptophan was made in water at 10× concentration and 30 μL was added to the blood at […] concentration. The assay plates were centrifuged at 300×G for 10 min with no brake to separate plasma from red blood cells. 60 μL of plasma samples was removed without disturbing red blood cells. Plasma was diluted with RPMI in 1:1 ratio and proteins were precipitated out with two volumes of Acetonitrile. The plates were centrifuged at 4000×G for 60 min. 20 μL of supernatant was carefully transferred to a 384 well plate containing 40 μL of 0.1% formic acid in water and analyzed by LC/MS/MS.
LC/MS/MS analyses were performed using Thermo Fisher's LX4-TSQ Quantum Ultra system. This system consists of four Agilent binary high-performance liquid chromatography (HPLC) pumps and a TSQ Quantum Ultra triple quadrupole MS/MS instrument. For each sample, 5 μL were injected onto an Atlantis T3 column (2.1 mm×150 mm, 3 μm particle size) from Waters. The mobile phase gradient pumped at 0.8 mL/min was used to elute the analytes from the column at 25° C. The elution started at 0% B increasing linearly to 25% B at 6.5 min, holding at 25% for 1 min, re-equilibrating to 10 min. Mobile phase A consisted of 0.1% formic acid in water. Mobile phase B consisted of 0.1% of formic acid in acetonitrile. Data was acquired in positive mode using a HESI interface. The operational parameters for the TSQ Quantum Ultra instrument were a spray voltage of 4000 V, capillary temperature of 380° C., vaporizer temperature 400° C., shealth gas 60 arbitrary units, Aux gas 20 arbitrary units, tube lens 85 and collision gas 1.2 mTorr. SRM chromatograms of kynurenine (QI: 209.2>Q3:94.0) and internal standard (QI: 215.3>Q3:98.2) were collected for 90 sec. The peak area was integrated by Xcalibur Quan software. The ratios between the kynurenine generated in the reaction and 2D6-Kynurenine spiked-in internal standard were used to generate percentage inhibition and IC50 values. Compounds were titrated and IC50's were calculated by 4 parameter sigmoidal curve fitting formula.

T1 sequence (P14902 whole entry): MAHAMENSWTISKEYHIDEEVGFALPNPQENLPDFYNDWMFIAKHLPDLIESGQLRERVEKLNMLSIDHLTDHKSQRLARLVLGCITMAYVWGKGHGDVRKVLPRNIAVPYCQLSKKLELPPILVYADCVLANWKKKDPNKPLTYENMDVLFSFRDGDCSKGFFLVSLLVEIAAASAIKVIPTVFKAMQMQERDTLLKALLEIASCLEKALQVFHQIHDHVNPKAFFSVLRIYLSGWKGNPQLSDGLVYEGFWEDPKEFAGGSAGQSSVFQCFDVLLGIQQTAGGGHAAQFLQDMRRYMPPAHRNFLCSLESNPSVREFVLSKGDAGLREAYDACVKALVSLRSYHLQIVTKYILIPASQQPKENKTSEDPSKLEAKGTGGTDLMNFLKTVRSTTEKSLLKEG

Compound	IC50 (IDO1 [1]) [nM]	IC50 (IDO1 [2]) [nM]
O=C(Nc1ccc(C2(c3nc4ncc(Br)cc4[nH]3)CCC2)cn1)c1cccc(Cl)c1 [Ex. 1, N-(5-(1-(6-bromo-1H-imidazo[4,5-b]pyridin-2-yl)cyclobutyl)pyridin-2-yl)-3-chlorobenzamide]	10.1	159
N#Cc1cnc2nc(C3(c4ccc(NC(=O)c5cccc(Cl)c5)nc4)CCC3)[nH]c2c1 [Ex. 2, 3-Chloro-N-(5-(1-(6-cyano-1H-imidazo[4,5-b]pyridin-2-yl)cyclobutyl)pyridin-2-yl)benzamide]	13.6	387
O=C(Nc1ccc(C2(c3nc4ccccc4[nH]3)CCC2)cn1)c1cccc(Cl)c1 [Ex. 3, N-(5-(1-(1H-benzo[d]imidazol-2-yl)cyclobutyl)pyridin-2-yl)-3-chlorobenzamide]	6.87	429
N#Cc1cnc2nc(C3(c4ccc(NC(=O)c5cncc(F)c5)nc4)CCC3)[nH]c2c1 [Ex. 4, N-(5-(1-(6-cyano-1H-imidazo[4,5-b]pyridin-2-yl)cyclobutyl)pyridin-2-yl)-5-fluoronicotinamide]	144	
N#Cc1cccc(C(=O)Nc2ccc(C3(c4nc5cc(C#N)ccc5[nH]4)CCC3)cn2)c1 [Ex. 5, 3-Cyano-N-(5-(1-(5-cyano-1H-benzo[d]imidazol-2-yl)cyclobutyl)pyridin-2-yl)benzamide]	12.5	864
N#Cc1cnc2[nH]c(C3(c4ccc(NC(=O)c5cccc(Cl)c5)nc4)CCC3)cc2c1 [Ex. 6, 3-Chloro-N-(5-(1-(5-cyano-1H-pyrrolo[2,3-b]pyridin-2-yl)cyclobutyl)pyridin-2-yl)benzamide]	633	
CC(C)(C)c1ccc2nc(C3(c4ccc(NC(=O)c5cccc(Cl)c5)nc4)CCC3)[nH]c2c1 [Ex. 12, N-{5-[1-(6-tert-butyl-1H-benzimidazol-2-yl)cyclobutyl]pyridin-2-yl}-3-chlorobenzamide]	433	
COc1cccc2[nH]c(C3(c4ccc(NC(=O)c5cccc(Cl)c5)nc4)CCC3)nc12 [Ex. 15, 3-chloro-N-{5-[1-(4-methoxy-1H-benzimidazol-2-yl)cyclobutyl]pyridin-2-yl}benzamide]	10.1	
O=C1COc2cc3[nH]c(C4(c5ccc(NC(=O)c6cccc(Cl)c6)nc5)CCC4)nc3cc2N1 [Ex. 18, 3-chloro-N-{5-[1-(7-oxo-3,6,7,8-tetrahydroimidazo[4,5-g][1,4]benzoxazin-2-yl)cyclobutyl]pyridin-2-yl}benzamide]	132	
O=C(Nc1ccc(C2(c3nc4cc(-n5cnnn5)ccc4[nH]3)CCC2)cn1)c1cccc(Cl)c1 [Ex. 20, 3-chloro-N-(5-{1-[5-(1H-tetrazol-1-yl)-1H-benzimidazol-2-yl]cyclobutyl}pyridin-2-yl)benzamide]	262	
O=C(Nc1ccc(C2(c3nc4ccc(OC(F)(F)F)cc4[nH]3)CCC2)cn1)c1cccc(Cl)c1 [Ex. 22, 3-chloro-N-(5-{1-[6-(trifluoromethoxy)-1H-benzimidazol-2-yl]cyclobutyl}pyridin-2-yl)benzamide]	14.1	
N#Cc1cccc(C(=O)Nc2ccc(C3(c4nc5cc(C#N)cnc5[nH]4)CCC3)cn2)c1 [Ex. 29, 3-cyano-N-{5-[1-(6-cyano-3H-imidazo[4,5-b]pyridin-2-yl)cyclobutyl]pyridin-2-yl}benzamide]	46	
O=C(Nc1ccc(C2(c3nc4ccccc4n3CCO)CCC2)cn1)c1cccc(Cl)c1 [Ex. 31, 3-Chloro-N-(5-(1-(1-(2-hydroxyethyl)-1H-benzo[d]imidazol-2-yl)cyclobutyl)pyridin-2-yl)benzamide]	200	
COC(c1ccc(NC(=O)c2cccc(C#N)c2)nc1)c1nc2cc(C(F)(F)F)cnc2[nH]1 (centres unmarked) [Ex. 39, 3-Cyano-N-(5-(methoxy(6-(trifluoromethyl)-3H-imidazo[4,5-b]pyridin-2-yl)methyl)pyridin-2-yl)benzamide]	121	
N#Cc1cccc(C(=O)Nc2ccc(C(O)c3nc4cc(C(F)(F)F)cnc4[nH]3)cn2)c1 (centres unmarked) [Ex. 42, 3-Cyano-N-(5-(hydroxy(6-(trifluoromethyl)-3H-imidazo[4,5-b]pyridin-2-yl)methyl)pyridin-2-yl)benzamide]	5910	
N#Cc1cccc(C(=O)Nc2ccc([C@H](O)c3nc4cc(C(F)(F)F)cnc4[nH]3)cn2)c1 [Ex. 43, (S)-3-cyano-N-(5-(hydroxy(6-(trifluoromethyl)-3H-imidazo[4,5-b]pyridin-2-yl)methyl)pyridin-2-yl)benzamide]	3860	
O=C(Nc1ccc(C2(c3nc4c([nH]3)CCCC4)CCC2)cn1)c1cccc(Cl)c1 [Ex. 48, 3-Chloro-N-(5-(1-(4,5,6,7-tetrahydro-1H-benzo[d]imidazol-2-yl)cyclobutyl)pyridin-2-yl)benzamide]	99.7	

Results, then the compound that gave them:

IC50 (IDO1 [1]) [nM]	IC50 (IDO1 [2]) [nM]	Compound
10.2		Cc1cccc2nc(C3(c4ccc(NC(=O)c5cccc(Cl)c5)nc4)CCC3)[nH]c12 [Ex. 11, 3-chloro-N-{5-[1-(7-methyl-1H-benzimidazol-2-yl)cyclobutyl]pyridin-2-yl}benzamide]
5.62		COc1ccc2nc(C3(c4ccc(NC(=O)c5cccc(Cl)c5)nc4)CCC3)[nH]c2c1 [Ex. 14, 3-chloro-N-{5-[1-(6-methoxy-1H-benzimidazol-2-yl)cyclobutyl]pyridin-2-yl}benzamide]
9.66		Cc1cc2nc(C3(c4ccc(NC(=O)c5cccc(Cl)c5)nc4)CCC3)[nH]c2cc1C [Ex. 26, 3-chloro-N-{5-[1-(5,6-dimethyl-1H-benzimidazol-2-yl)cyclobutyl]pyridin-2-yl}benzamide]
383		COC(=O)c1cccc2nc(C3(c4ccc(NC(=O)c5cccc(C#N)c5)nc4)CCC3)[nH]c12 [Ex. 35, Methyl 2-(1-(6-(3-cyanobenzamido)pyridin-3-yl)cyclobutyl)-1H-benzo[d]imidazole-7-carboxylate]
10000		N#Cc1cccc(C(=O)Nc2ccc(C3(c4nc5cccc(C(=O)O)c5[nH]4)CCC3)cn2)c1 [Ex. 36, 2-(1-(6-(3-Cyanobenzamido)pyridin-3-yl)cyclobutyl)-1H-benzo[d]imidazole-7-carboxylic acid]
94.8		CO[C@@H](c1ccc(NC(=O)c2cccc(C#N)c2)nc1)c1nc2cc(C(F)(F)F)cnc2[nH]1 [Ex. 40, (S)-3-cyano-N-(5-(methoxy(6-(trifluoromethyl)-3H-imidazo[4,5-b]pyridin-2-yl)methyl)pyridin-2-yl)benzamide]
263		CO[C@H](c1ccc(NC(=O)c2cccc(C#N)c2)nc1)c1nc2cc(C(F)(F)F)cnc2[nH]1 [Ex. 41, (R)-3-cyano-N-(5-(methoxy(6-(trifluoromethyl)-3H-imidazo[4,5-b]pyridin-2-yl)methyl)pyridin-2-yl)benzamide]
6220		N#Cc1cccc(C(=O)Nc2ccc([C@@H](O)c3nc4cc(C(F)(F)F)cnc4[nH]3)cn2)c1 [Ex. 44, (R)-3-cyano-N-(5-(hydroxy(6-(trifluoromethyl)-3H-imidazo[4,5-b]pyridin-2-yl)methyl)pyridin-2-yl)benzamide]
